From patent US9284283B2, “Macrocyclic compounds for modulating IL-17” (ENSEMBLE THERAPEUTICS CORPORATION, priority 2012, dated 2016) come the findings set out here.

Bounds are passed on as bounds.

The target of assay [1] is T1, biotinylated human IL-17 (binding to IL17R/Fc) (Homo sapiens, UniProt Q16552).
T1 construct: purchased R&D Systems 317-ILB (IL-17, biotinylated); 177-IR (IL17R/Fc)
T1 sequence (Q16552 20-155 limits assumed): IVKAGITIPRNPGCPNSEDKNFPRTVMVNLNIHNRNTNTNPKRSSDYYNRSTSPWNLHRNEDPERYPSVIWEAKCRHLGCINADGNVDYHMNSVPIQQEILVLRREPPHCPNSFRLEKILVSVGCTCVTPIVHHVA
In words: IL-17 competition ELISA II (captured IL17R/Fc, biotinylated IL-17). In short, it runs like this: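 Competition read-out: absorbance at 450 nm after streptavidin-HRP/TMB detection, fitted to a 4-parameter logistic model bounded by no-competitor and blank wells to give IC50. Compound was serially diluted 5-fold from 1 μM alongside 20 nM (stock) biotinylated IL-17 on IL17R/Fc (10 nM) captured via goat anti-human IgG, 30 min at room temperature.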
A general note: An ELISA detects its analyte on a solid surface through an enzyme-linked reagent.

In assay [2] the target is T2, recombinant human IL17a (binding to its receptor IL17R) (Homo sapiens, UniProt Q16552).
T2 construct: purchased R&D Systems 317-ILB (IL17a); 177-IR (IL17R/Fc)
T2 sequence (Q16552 20-155 limits assumed): T1 sequence (Q16552 20-155 limits assumed)
In words: IL-17 competition ELISA I (IL17a coated, IL17R/Fc binding). The procedure: ELISA I: The ability of the compounds to block binding of IL17a to its receptor, IL17R, was analyzed in a competition ELISA format. High binding 96-well plates (Costar #9018) were coated with 20 nM of recombinant human IL17a (R&D Systems #317-ILB) in PBS (0.64 μg/mL), 100 μL/well, for 30 min at 37′C followed by 5 min at 4′C. Plates were then washed in PBST (PBS/0.05% Tween-20) on a plate washer, (Biotech EL-450) blocked with protein-free blocking buffer (Thermo Scientific #37573) in 250 μL/well for 30 min on shaker at room temperature, and then washed again. Compound dilutions prepared in PBST were added into the wells in duplicates followed by the addition of IL17R/Fc (R&D Systems #177-IR) at a final concentration of 12 nM. Plates were then incubated for 30 min at room temperature on the shaker. Wells with no compound served as a positive “no competitor” control, while wells with no IL17R/Fc and no compound served as a blank negative control. After an additional PBST wash, 50 ng/mL HRP-conjugated goat anti-human Fc IgG (KPL #04-10-20) was added to the plate for 30 min at room temperature, followed by PBST wash and addition of SureBlue™ TMB (KPL #52-00-03). After the sufficient color development, the reaction was fixed by the addition of 100 μL/well 0.5 N HCl and absorbance was measured at 450 nm on Biotek plate reader.
Data were processed using BioAssay Enterprise v10.1.4 (CambridgeSoft) software. Linear OD λ450 were plotted against log concentration (x) and fitted to a 4-parameter logistic equation. IC50 was calculated using positive ‘no competitor’ control data as an upper limit and blank control as a lower limit in each assay.

By IC50 is commonly meant the midpoint of a concentration-inhibition curve. As to `O=C1CC2(CCCC2)CC(=O)N[C@H](Cc2ccc(NC(=O)[C@H](Cc3ccccc3Cl)NC(=O)Cc3ccccc3)cc2)C(=O)NCCCCCCCCN1` [Compound 259], the IC50 in assay [1] was less than 100 nM; in assay [2], 100 to 1000 nM.
Take `CN1CCCCCNC(=O)CNC(=O)[C@@H](Cc2ccc(NC(=O)[C@H](Cc3ccccc3Cl)NC(=O)Cc3ccccc3)cc2)NC(=O)CC2(CCCC2)CC1=O` [Compound 280]: the IC50 in assay [1] and in assay [2] was less than 100 nM throughout.
As to `O=C1CC2(CCCC2)CC(=O)N[C@H](Cc2ccc(NC(=O)[C@H](Cc3ccccc3Cl)NC(=O)Cc3ccccc3)cc2)C(=O)NCCOCCOCCN1` [Compound 292], the concentration for half-maximal inhibition (IC50) in assay [1] was less than 100 nM; in assay [2], 100 to 1000 nM.
In the case of `O=C1CNC(=O)[C@@H](Cc2ccc(NC(=O)[C@H](Cc3ccccc3Cl)NC(=O)c3ccc(C(=O)O)cc3)cc2)NC(=O)CC2(CCCC2)CC(=O)NCCCCCN1` [Compound 299], in assay [2], the IC50 is 1000 to 10000 nM.
Same read-out and setting: in the case of `O=C1CNC(=O)[C@@H](Cc2ccc(NC(=O)[C@H](Cc3ccccc3Cl)NC(=O)CN3CCCCC3)cc2)NC(=O)CC2(CCCC2)CC(=O)NCCCCCN1` [Compound 300] it was 100 to 1000 nM.
For the compound `O=C1CNC(=O)[C@@H](Cc2ccc(NC(=O)[C@H](Cc3ccccc3Cl)NC(=O)CN3CCCC3)cc2)NC(=O)CC2(CCCC2)CC(=O)NCCCCCN1` [Compound 301], in assay [2], the IC50 was in the range of 1000 to 10000 nM.
Take `CN(C)CC(=O)N[C@@H](Cc1ccccc1Cl)C(=O)Nc1ccc(C[C@H]2NC(=O)CC3(CCCC3)CC(=O)NCCCCCNC(=O)CNC2=O)cc1` [Compound 303]: in assay [2], the IC50 was in the range of 100 to 1000 nM.
Turning to `O=C1CNC(=O)[C@@H](Cc2ccc(NC(=O)[C@H](Cc3ccccc3Cl)NC(=O)CN3CCOCC3)cc2)NC(=O)CC2(CCCC2)CC(=O)NCCCCCN1` [Compound 304], the IC50 in assay [2] fell in the range of 100 to 1000 nM.
Regarding `CN1CCCCCNC(=O)CNC(=O)[C@@H](Cc2ccc(NC(=O)[C@H](Cc3ccccc3Cl)NC(=O)c3ccc(F)cc3)cc2)NC(=O)CC2(CCCC2)CC1=O` [Compound 306], the IC50 in assay [2] was 100 to 1000 nM.
As to `CN1CCCCCNC(=O)CC2(CCCC2)CC(=O)N[C@H](Cc2ccc(NC(=O)[C@H](Cc3ccccc3Cl)NC(=O)Cc3ccc(O)cc3)cc2)C(=O)NCC1=O` [Compound 307], the IC50 in assay [2] was less than 100 nM.
As for `CN1CCCCCNC(=O)CC2(CCCC2)CC(=O)N[C@H](Cc2ccc(NC(=O)[C@H](Cc3ccccc3Cl)NC(=O)c3ccc(F)cc3)cc2)C(=O)NCC1=O` [Compound 308], the IC50 in assay [2] is 100 to 1000 nM.
In the case of `O=C1CC2(CCCC2)CC(=O)N[C@H](Cc2ccc(NC(=O)[C@H](Cc3ccccc3Cl)NC(=O)c3ccc(F)cc3)cc2)C(=O)N[C@@H](Cc2ccccc2)C(=O)NCCCCCN1` [Compound 309], the IC50 in assay [2] was 100 to 1000 nM.
As for `CC(C)C[C@H](NC(=O)Cc1ccccc1)C(=O)Nc1ccc(C[C@H]2NC(=O)CC3(CCCC3)CC(=O)NCCCCCNC(=O)CNC2=O)cc1` [Compound 310], the IC50 is less than 100 nM in assay [1] and 100 to 1000 nM in assay [2].
With `CC[C@H](C)[C@H](NC(=O)Cc1ccccc1)C(=O)Nc1ccc(C[C@H]2NC(=O)CC3(CCCC3)CC(=O)NCCCCCNC(=O)CNC2=O)cc1` [Compound 311], the IC50 in assay [1] is less than 100 nM; in assay [2], 100 to 1000 nM.
On to `CCCC[C@H](NC(=O)Cc1ccccc1)C(=O)Nc1ccc(C[C@H]2NC(=O)CC3(CCCC3)CC(=O)NCCCCCNC(=O)CNC2=O)cc1` [Compound 312], for which the figures for the IC50 in assay [1] and in assay [2] were less than 100 nM and 100 to 1000 nM, respectively.
For `CC(C)[C@H](NC(=O)Cc1ccccc1)C(=O)Nc1ccc(C[C@H]2NC(=O)CC3(CCCC3)CC(=O)NCCCCCNC(=O)CNC2=O)cc1` [Compound 313] the same measures were less than 100 nM and 100 to 1000 nM.
Take `O=C1CNC(=O)[C@@H](Cc2ccc(NC(=O)[C@H](NC(=O)Cc3ccccc3)C3CCCCC3)cc2)NC(=O)CC2(CCCC2)CC(=O)NCCCCCN1` [Compound 315]: the IC50 in assay [2] is 1000 to 10000 nM.
`O=C1CC2(CCCC2)CC(=O)N[C@H](Cc2ccc(NC(=O)[C@H](Cc3ccccc3Cl)NC(=O)Cc3ccccc3)cc2)C(=O)N[C@@H](Cc2ccccc2)C(=O)NCCCCCN1` [Compound 317]: in assay [2], the IC50 was less than 100 nM.
Consider `O=C1CC2(CCCC2)CC(=O)N[C@H](Cc2ccc(NC(=O)[C@H](Cc3ccccc3Cl)NC(=O)Cc3ccccc3)cc2)C(=O)NCC(=O)OCCCCCN1` [Compound 318], for which the IC50 in assay [2] is 100 to 1000 nM.
As to `O=C1CC2(CCCC2)CC(=O)N[C@H](Cc2ccc(NC(=O)[C@H](Cc3ccccc3Cl)NC(=O)Cc3ccccc3)cc2)C(=O)N[C@@H](CO)C(=O)NCCCCCN1` [Compound 319], the IC50 in assay [2] fell in the range of 100 to 1000 nM.
With `CC(C)(C)OC[C@@H]1NC(=O)[C@@H](Cc2ccc(NC(=O)[C@H](Cc3ccccc3Cl)NC(=O)Cc3ccccc3)cc2)NC(=O)CC2(CCCC2)CC(=O)NCCCCCNC1=O` [Compound 320], the IC50 in assay [2] was in the range of 100 to 1000 nM.
Still for that read-out and setting: for `C[C@@H](O)[C@@H]1NC(=O)[C@@H](Cc2ccc(NC(=O)[C@H](Cc3ccccc3Cl)NC(=O)Cc3ccccc3)cc2)NC(=O)CC2(CCCC2)CC(=O)NCCCCCNC1=O` [Compound 321] the value was 100 to 1000 nM; for `O=C1CNC(=O)[C@@H](Cc2ccc(NC(=O)[C@H](Cc3ccccc3Cl)NC(=O)Cc3ccccc3)cc2)NC(=O)CC2(CCCC2)CC(=O)NCCCCCOC(=O)CN1` [Compound 322], 100 to 1000 nM; for `CN1CCNC(=O)CNC(=O)[C@@H](Cc2ccc(NC(=O)[C@H](Cc3ccccc3Cl)NC(=O)Cc3ccccc3)cc2)NC(=O)CC2(CCCC2)CC(=O)NCC1` [Compound 323], 100 to 1000 nM.
Consider `O=C1CNC(=O)[C@@H](Cc2ccc(NC(=O)[C@H](Cc3ccc(F)cc3Cl)NC(=O)c3ccc(F)cc3)cc2)NC(=O)CC2(CCCC2)CC(=O)NCCOCCN1` [Compound 324], for which the IC50 in assay [2] fell in the range of 100 to 1000 nM.
Consider `O=C1CNC(=O)[C@@H](Cc2ccc(NC(=O)[C@H](Cc3ccccc3Cl)NC(=O)Cc3c(F)cc(F)cc3F)cc2)NC(=O)CC2(CCCC2)CC(=O)NCCCCCN1` [Compound 325], for which the IC50 in assay [1] and in assay [2] was less than 100 nM each time.
Turning to `O=C1CNC(=O)[C@@H](Cc2ccc(NC(=O)[C@H](Cc3ccccc3Cl)NC(=O)c3cc(F)c(F)c(F)c3)cc2)NC(=O)CC2(CCCC2)CC(=O)NCCCCCN1` [Compound 326], the 50% inhibitory concentration (IC50) in assay [2] was 100 to 1000 nM.
The same measure, in the same setting: in the case of `O=C1CNC(=O)[C@@H](Cc2ccc(NC(=O)[C@H](Cc3ccccc3Cl)NC(=O)c3cncnc3)cc2)NC(=O)CC2(CCCC2)CC(=O)NCCCCCN1` [Compound 327] it was less than 100 nM.
For the compound `O=C1CNC(=O)[C@@H](Cc2ccc(NC(=O)[C@H](Cc3ccccc3Cl)NC(=O)c3ccc(F)c(F)c3F)cc2)NC(=O)CC2(CCCC2)CC(=O)NCCCCCN1` [Compound 328], in assay [2], the IC50 is 100 to 1000 nM.
For the compound `O=C1CNC(=O)[C@@H](Cc2ccc(NC(=O)[C@H](Cc3ccccc3Cl)NC(=O)c3cc(F)c(F)cc3F)cc2)NC(=O)CC2(CCCC2)CC(=O)NCCCCCN1` [Compound 329], in assay [2], the IC50 is 100 to 1000 nM.
Regarding `O=C1CNC(=O)[C@@H](Cc2ccc(NC(=O)[C@H](Cc3ccccc3Cl)NC(=O)c3ccccc3O)cc2)NC(=O)CC2(CCCC2)CC(=O)NCCCCCN1` [Compound 330], the IC50 in assay [2] fell in the range of 100 to 1000 nM.
Regarding `O=C1CC2(CCCC2)CC(=O)N[C@H](Cc2ccc(NC(=O)[C@@H](NC(=O)Cc3ccccc3)C3CCCCC3)cc2)C(=O)N[C@H](Cc2ccccc2)C(=O)NCCCCCN1` [Compound 331], in assay [2], the IC50 fell in the range of 100 to 1000 nM.
As to `O=C1CC2(CCCC2)CC(=O)N[C@H](Cc2ccc(NC(=O)[C@@H](NC(=O)Cc3ccccc3)C3CCCCC3)cc2)C(=O)NCCOCCOCCN1` [Compound 333], the values for the IC50 in assay [1] and in assay [2] were less than 100 nM and 100 to 1000 nM, respectively.
As to `O=C1CC2(CCCC2)CC(=O)N[C@H](Cc2ccc(NC(=O)[C@@H](NC(=O)Cc3ccccc3)C3CCCCC3)cc2)C(=O)NCCCCCCCCN1` [Compound 334], the IC50 in assay [2] fell in the range of 1000 to 10000 nM.
Same read-out and setting: for `O=C1CC2(CCCC2)CC(=O)N[C@H](Cc2ccc(NC(=O)[C@@H](NC(=O)Cc3ccc(CO)cc3)C3CCCCC3)cc2)C(=O)NCCCCCCCCN1` [Compound 337] the value was 100 to 1000 nM; for `CN1CCCCCNC(=O)CNC(=O)[C@@H](Cc2ccc(NC(=O)[C@@H](NC(=O)Cc3ccc(CO)cc3)C3CCCCC3)cc2)NC(=O)CC2(CCCC2)CC1=O` [Compound 343], 100 to 1000 nM.
As for `CN1CCCCCNC(=O)CC2(CCCC2)CC(=O)N[C@H](Cc2ccc(NC(=O)[C@@H](NC(=O)Cc3ccc(CO)cc3)C3CCCCC3)cc2)C(=O)NCC1=O` [Compound 351], the IC50 in assay [2] was in the range of 100 to 1000 nM.
